Target: T1, Met receptor (EGFR/Met chimeric cells, EMR) (Homo sapiens, UniProt P08581)
T1 construct: expressed in transfected cells; the other entry of the earlier key: EGFR (P00533, Epidermal growth factor receptor)
Assay: Met Autophosphorylation Assay
Assay type: biochemical
Procedure: Met Autophosphorylation Assay
This assay determines Met tyrosine kinase activity by analyzing Met protein tyrosine kinase levels on the Met receptor.
a. HNTG (5× stock solution): Dissolve 23.83 g HEPES and 43.83 g NaCl in about 350 ml dH2O. Adjust pH to 7.2 with HCl or NaOH, add 500 ml glycerol and 10 ml Triton X-100, mix, add dH2O to 1 L total volume. To make 1 L of 1× working solution add 200 ml 5× stock solution to 800 ml dH2O, check and adjust pH as necessary, store at 4° C.
b. PBS (Dulbecco's Phosphate-Buffered Saline), Gibco Cat. # 450-1300EB (1× solution).
c. Blocking Buffer: in 500 ml dH2O place 100 g BSA, 12.1 g Tris-pH7.5, 58.44 g NaCl and 10 ml Tween-20, dilute to 1 L total volume.
d. Kinase Buffer: To 500 ml dH2O add 12.1 g TRIS (pH 7.2), 58.4 g NaCl, 40.7 g MgCl2 and 1.9 g EGTA; bring to 1 L total volume with dH2O.
e. PMSF (Phenylmethylsulfonyl fluoride), Sigma Cat. # P-7626, to 435.5 mg, add 100% ethanol to 25 ml total volume, vortex.
f. ATP (Bacterial Source), Sigma Cat. # A-7699, store powder at −20° C.; to make up solution for use, dissolve 3.31 mg in 1 ml dH2O.
g. RC-20H HRPO Conjugated Anti-Phosphotyrosine, Transduction Laboratories Cat. # E120H.
h. Pierce 1-Step Turbo™ B-ELISA (3,3′,5,5′-tetramethylbenzidine, Pierce Cat. # 34022.
i. H2SO4, add 1 ml conc.(18 N) to 35 ml dH2O.
j. TRIS HCL, Fischer Cat. # BP152-5; to 121.14 g of material, add 600 ml MilliQ H2O, adjust pH to 7.5 (or 7.2) with HCl, bring volume to 1 L with MilliQ H2O.
k. NaCl, Fischer Cat. # S271-10, make up 5M solution.
m. Na3VO4, Fischer Cat. # S454-50, to 1.8 g material add 80 ml MilliQ H2O, adjust pH to 10.0 with HCl or NaOH, boil in microwave, cool, check pH, repeat procedure until pH stable at 10.0, add MilliQ H2O to 100 ml total volume, make 1 ml aliquots and store at −80° C.
n. MgCl2, Fischer Cat. # M33-500, make up 1M solution.
o. HEPES, Fischer Cat. # BP310-500, to 200 ml MilliQ H2O, add 59.6 g material, adjust pH to 7.5, bring volume to 250 ml total, sterile filter.
p. Albumin, Bovine (BSA), Sigma Cat. # A-4503, to 30 grams material add sterile distilled water to make total volume of 300 ml, store at 4° C.
q. TBST Buffer: to approx. 900 ml dH2O in a 1 L graduated cylinder add 6.057 g TRIS and 8.766 g NaCl, when dissolved, adjust pH to 7.2 with HCl, add 1.0 ml Triton X-100 and bring to 1 L total volume with dH2O.
r. Goat Affinity purified antibody Rabbit IgG (whole molecule), Cappel Cat. # 55641.
s. Anti h-Met (C-28) rabbit polyclonal IgG antibody, Santa Cruz Chemical Cat. # SC-161.
t. Transiently Transfected EGFR/Met chimeric cells (EMR) (Komada, et al., Oncogene, 8:2381-2390 (1993).
u. Sodium Carbonate Buffer, ([…], Fischer Cat. # S495) to 10.6 g material add 800 ml MilliQ H2O, when dissolved adjust pH to 9.6 with NaOH, bring up to 1 L total volume with MilliQ H2O, filter, store at 4° C.
All of the following steps are conducted at room temperature unless it is specifically indicated otherwise. All ELISA plate washing is by rinsing 4× with TBST.
This procedure can be performed the night before or immediately prior to the start of receptor capture.
1. Quick thaw lysates in a 37° C. waterbath with a swirling motion until the last crystals disappear.
2. Lyse cell pellet with 1× HNTG containing 1 mM PMSF. Use 3 ml of HNTG per 15 cm dish of cells. Add ½ the calculated HNTG volume, vortex the tube for 1 min., add the remaining amount of HNTG, vortex for another min.
3. Balance tubes, centrifuge at 10,000× g for 10 min at 4° C.
4. Pool supernatants, remove an aliquot for protein determination.
5. Quick freeze pooled sample in dry ice/ethanol bath. This step is performed regardless of whether lysate will be stored overnight or used immediately following protein determination.
6. Perform protein determination using standard bicinchoninic acid (BCA) method (BCA Assay Reagent Kit from Pierce Chemical Cat. # 23225).
1. Coat Corning 96 well ELISA plates with 5 μg per well Goat anti-Rabbit antibody in Carbonate Buffer for a total well volume of 50 μl. Store overnight at 4° C. […]

T1 sequence (P08581 with tags, fused parts or gaps): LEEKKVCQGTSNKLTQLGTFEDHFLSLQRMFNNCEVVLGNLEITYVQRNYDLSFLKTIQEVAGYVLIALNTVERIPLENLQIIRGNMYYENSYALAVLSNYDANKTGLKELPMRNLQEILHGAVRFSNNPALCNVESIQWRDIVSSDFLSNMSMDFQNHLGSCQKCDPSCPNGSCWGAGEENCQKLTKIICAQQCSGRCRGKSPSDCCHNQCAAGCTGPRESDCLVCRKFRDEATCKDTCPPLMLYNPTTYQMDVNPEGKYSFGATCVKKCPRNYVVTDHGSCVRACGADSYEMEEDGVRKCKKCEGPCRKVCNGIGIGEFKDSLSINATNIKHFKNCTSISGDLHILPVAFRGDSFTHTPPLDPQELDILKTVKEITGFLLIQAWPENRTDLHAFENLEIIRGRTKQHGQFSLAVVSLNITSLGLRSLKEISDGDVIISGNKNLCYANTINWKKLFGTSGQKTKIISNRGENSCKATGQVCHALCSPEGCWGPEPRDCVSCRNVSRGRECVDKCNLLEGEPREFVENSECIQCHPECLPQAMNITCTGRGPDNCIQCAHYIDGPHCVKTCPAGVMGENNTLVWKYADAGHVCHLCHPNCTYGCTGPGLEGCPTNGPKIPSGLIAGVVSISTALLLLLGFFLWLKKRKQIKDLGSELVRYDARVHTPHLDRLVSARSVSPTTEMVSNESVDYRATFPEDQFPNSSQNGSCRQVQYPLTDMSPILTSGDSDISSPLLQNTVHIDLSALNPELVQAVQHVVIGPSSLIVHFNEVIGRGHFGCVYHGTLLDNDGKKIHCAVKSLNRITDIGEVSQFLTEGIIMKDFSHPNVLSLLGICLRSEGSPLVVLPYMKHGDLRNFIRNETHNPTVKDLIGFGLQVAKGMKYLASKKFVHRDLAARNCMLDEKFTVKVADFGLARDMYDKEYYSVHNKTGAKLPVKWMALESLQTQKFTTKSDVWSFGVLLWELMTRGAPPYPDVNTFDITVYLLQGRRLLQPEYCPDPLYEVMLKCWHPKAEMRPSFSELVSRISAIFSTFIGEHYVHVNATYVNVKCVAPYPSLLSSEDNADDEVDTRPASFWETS

SMILES	Met Kinase % Inhibition (P.130) [%]
CCOC(=O)c1c(C)[nH]c(C=C2C(=O)Nc3c(Br)cc(Br)c(C)c32)c1C [10718/H02]	31.5
COc1cc(Br)c(O)c(C=C2C(=O)Nc3c(Br)cc(Br)c(C)c32)c1 [10718/H03]	90.8
Cc1c(Br)cc(Br)c2c1C(=Cc1ccc3ccccc3c1O)C(=O)N2 [10718/H04]	84.3
CCOC(=O)CCc1c(C(=O)OCC)[nH]c(C=C2C(=O)Nc3c(Br)cc(Br)c(C)c32)c1CC(=O)OCC [10718/H05]	13.5
CCOC(=O)c1cc(C=C2C(=O)Nc3c(Br)cc(Br)c(C)c32)oc1C [10718/H06]	32.2
COC(=O)c1[nH]c(C)c(C=C2C(=O)Nc3c(Br)cc(Br)c(C)c32)c1C(=O)OC [10718/H07]	52.7
Cc1c(Br)cc(Br)c2c1C(=Cc1ccc(Cl)c([N+](=O)[O-])c1)C(=O)N2 [10718/H08]	14.4
CCOc1cccc(C=C2C(=O)Nc3c(Br)cc(Br)cc32)c1O [10734/A02]	51.1
O=C1Nc2c(Br)cc(Br)cc2C1=Cc1cc(Cl)cc(Cl)c1O [10734/A03]	87.8
O=C1Nc2c(Br)cc(Br)cc2C1=Cc1cc(Cl)ccc1O [10734/A04]	68.0
CCN(CC)c1ccc(C=C2C(=O)Nc3c(Br)cc(Br)cc32)c(O)c1 [10734/A05]	69.9
O=C1Nc2c(Br)cc(Br)cc2C1=Cc1ccc([N+](=O)[O-])cc1 [10734/A06]	46.9
O=C1Nc2c(Br)cc(Br)cc2C1=Cc1cc(Br)cc(Br)c1O [10734/A07]	89.3
O=C1Nc2c(Br)cc(Br)cc2C1=Cc1cccc(F)c1O [10734/A08]	71.5
O=C1Nc2c(Br)cc(Br)cc2C1=Cc1ccc(O)c(Br)c1 [10734/A09]	88.4
CC(C)(C)c1ccc(C=C2C(=O)Nc3c(Br)cc(Br)cc32)cc1 [10734/A10]	55.4
O=C1Nc2c(Br)cc(Br)cc2C1=Cc1ccc(Br)s1 [10734/A11]	51.9
CCOc1cccc(C=C2C(=O)Nc3ccc(I)cc32)c1O [10734/B02]	61.9
O=C1Nc2ccc(I)cc2C1=Cc1cc(Cl)cc(Cl)c1O [10734/B03]	90.1
O=C1Nc2ccc(I)cc2C1=Cc1cc(Cl)ccc1O [10734/B04]	88.4
CCN(CC)c1ccc(C=C2C(=O)Nc3ccc(I)cc32)c(O)c1 [10734/B05]	67.8
O=C1Nc2ccc(I)cc2C1=Cc1ccc([N+](=O)[O-])cc1 [10734/B06]	91.2
O=C1Nc2ccc(I)cc2C1=Cc1cc(Br)cc(Br)c1O [10734/B07]	93.2
O=C1Nc2ccc(I)cc2C1=Cc1cccc(F)c1O [10734/B08]	56.1
O=C1Nc2ccc(I)cc2C1=Cc1ccc(O)c(Br)c1 [10734/B09]	94.3
CC(C)(C)c1ccc(C=C2C(=O)Nc3ccc(I)cc32)cc1 [10734/B10]	82.6
O=C1Nc2ccc(I)cc2C1=Cc1ccc(Br)s1 [10734/B11]	83.6

SMILES	Met Kinase % Inhibition (P.130) [%]
CCOc1cccc(C=C2C(=O)Nc3ccc(Br)c(C)c32)c1O [10734/C02]	78.6
Cc1c(Br)ccc2c1C(=Cc1cc(Cl)cc(Cl)c1O)C(=O)N2 [10734/C03]	88.2
Cc1c(Br)ccc2c1C(=Cc1cc(Cl)ccc1O)C(=O)N2 [10734/C04]	90.7
CCN(CC)c1ccc(C=C2C(=O)Nc3ccc(Br)c(C)c32)c(O)c1 [10734/C05]	52.7
Cc1c(Br)ccc2c1C(=Cc1ccc([N+](=O)[O-])cc1)C(=O)N2 [10734/C06]	48.3
Cc1c(Br)ccc2c1C(=Cc1cc(Br)cc(Br)c1O)C(=O)N2 [10734/C07]	96.8
Cc1c(Br)ccc2c1C(=Cc1cccc(F)c1O)C(=O)N2 [10734/C08]	93.2
Cc1c(Br)ccc2c1C(=Cc1ccc(O)c(Br)c1)C(=O)N2 [10734/C09]	88.6
Cc1c(Br)ccc2c1C(=Cc1ccc(C(C)(C)C)cc1)C(=O)N2 [10734/C10]	11.6
Cc1c(Br)ccc2c1C(=Cc1ccc(Br)s1)C(=O)N2 [10734/C11]	23.9
CCOc1cccc(C=C2C(=O)Nc3ccc(S(=O)(=O)NC)cc32)c1O [10734/D02]	46.0
CNS(=O)(=O)c1ccc2c(c1)C(=Cc1cc(Cl)cc(Cl)c1O)C(=O)N2 [10734/D03]	78.6
CNS(=O)(=O)c1ccc2c(c1)C(=Cc1cc(Cl)ccc1O)C(=O)N2 [10734/D04]	46.9
CCN(CC)c1ccc(C=C2C(=O)Nc3ccc(S(=O)(=O)NC)cc32)c(O)c1 [10734/D05]	55.0
CNS(=O)(=O)c1ccc2c(c1)C(=Cc1ccc([N+](=O)[O-])cc1)C(=O)N2 [10734/D06]	30.6
CNS(=O)(=O)c1ccc2c(c1)C(=Cc1cc(Br)cc(Br)c1O)C(=O)N2 [10734/D07]	92.0
CNS(=O)(=O)c1ccc2c(c1)C(=Cc1cccc(F)c1O)C(=O)N2 [10734/D08]	49.8
CNS(=O)(=O)c1ccc2c(c1)C(=Cc1ccc(O)c(Br)c1)C(=O)N2 [10734/D09]	88.0
CNS(=O)(=O)c1ccc2c(c1)C(=Cc1ccc(C(C)(C)C)cc1)C(=O)N2 [10734/D10]	20.6
CNS(=O)(=O)c1ccc2c(c1)C(=Cc1ccc(Br)s1)C(=O)N2 [10734/D11]	33.9
CCOc1cccc(C=C2C(=O)Nc3ccc(S(=O)(=O)Nc4ccc(C(F)(F)F)cc4)cc32)c1O [10734/E02]	66.9
O=C1Nc2ccc(S(=O)(=O)Nc3ccc(C(F)(F)F)cc3)cc2C1=Cc1cc(Cl)cc(Cl)c1O [10734/E03]	99.3
O=C1Nc2ccc(S(=O)(=O)Nc3ccc(C(F)(F)F)cc3)cc2C1=Cc1cc(Cl)ccc1O [10734/E04]	88.9
CCN(CC)c1ccc(C=C2C(=O)Nc3ccc(S(=O)(=O)Nc4ccc(C(F)(F)F)cc4)cc32)c(O)c1 [10734/E05]	63.6
O=C1Nc2ccc(S(=O)(=O)Nc3ccc(C(F)(F)F)cc3)cc2C1=Cc1ccc([N+](=O)[O-])cc1 [10734/E06]	50.6
O=C1Nc2ccc(S(=O)(=O)Nc3ccc(C(F)(F)F)cc3)cc2C1=Cc1cc(Br)cc(Br)c1O [10734/E07]	100.8

From patent US20020026053A1, “Novel 3-(substituted) -2- indolinones compounds and use thereof as inhibitors of protein kinase activity” (priority 1997, published 2002)
